Results published in patent US10689383B2, “Optionally fused heterocyclyl-substituted derivatives of pyrimidine useful for the treatment of inflammatory, metabolic, oncologic and autoimmune diseases” (NUEVOLUTION A/S, priority 2014, dated 2020).
pIC50: −log10 of the molar value.

What was measured:
[1] = target: T1, human RORγt (Ligand Binding Domain) (Homo sapiens, UniProt P51449); experiment: Fluorescence Polarization (FP) Assay; conditions: Fluorescence Polarization (FP) Assay; values given as upper bounds of activity ranges; read-out: FP activity range
T1 construct: purchased Crelux (Planegg, Germany) batch no PC5032-1
T1 sequence (P51449 269-508 limits assumed): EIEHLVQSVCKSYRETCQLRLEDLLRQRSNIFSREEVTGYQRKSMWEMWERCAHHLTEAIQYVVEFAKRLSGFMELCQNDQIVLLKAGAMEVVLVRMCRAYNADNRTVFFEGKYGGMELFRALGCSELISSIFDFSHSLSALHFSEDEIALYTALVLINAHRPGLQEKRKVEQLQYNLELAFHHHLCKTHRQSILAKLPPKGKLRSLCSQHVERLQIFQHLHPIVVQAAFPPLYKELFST
Procedure, shortened: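 Binding to the ligand pocket followed by fluorescence polarization with a TAMRA-tagged RORγt ligand probe of 910 g/mole. Negative control wells received DMSO only.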

[2] = target: T2, yeast Gal4-DNA binding domain fused to the ligand binding domain of human RORγ (Homo sapiens, UniProt P51449); experiment: RORγ Reporter Assay (Gal4); assay type: cell-based; conditions: values given as lower bounds of ranges; for Gal4 activity range @ 0.1 μM (% inhibition): RORγ Reporter Assay (Gal4) at 0.1 μM; for Gal4 activity range @ 1 μM (% inhibition): RORγ Reporter Assay (Gal4) at 1 μM
T2 construct: host or cells: HEK293t
T2 sequence (P51449 269-508 limits assumed): T1 sequence (P51449 269-508 limits assumed)
Procedure, shortened: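 Compound at final 1,000 or 100 nM (0.1% DMSO, triplicate) was added to the transfected HEK293t cells carrying a Gal4-UAS luciferase reporter for 24 h at 37 °C, 10% charcoal-stripped FBS. Activity reduction expressed as percent of vehicle-only luciferase signal.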

Row | pIC50 [1] | Gal4 activity range @ 0.1 μM (% inhibition) [2] | Gal4 activity range @ 1 μM (% inhibition) [2] | Compound
1 | > 6.30 | >80 % inhibition | >80 % inhibition | NC(=O)Cc1ccc(CN2CCc3c2ncnc3N2CCC[C@@H]2c2ccc(C(F)(F)F)cc2)cc1 [Example 265, 2-[4-[[4-[(2R)-2-[4-(trifluoromethyl)phenyl]pyrrolidin-1-yl]-5,6-dihydropyrrolo[2,3-d]pyrimidin-7-yl]methyl]phenyl]acetamide]
2 | > 6.30 | >80 % inhibition | >80 % inhibition | CS(=O)(=O)N1CCC(F)(CNc2ncnc(N3CCOC[C@@H]3c3ccc(C(F)(F)F)cc3)c2F)CC1 [Example 266, 5-fluoro-N-[(4-fluoro-1-methylsulfonyl-4-piperidyl)methyl]-6-[(3S)-3-[4-(trifluoromethyl)phenyl]morpholin-4-yl]pyrimidin-4-amine]
3 | > 6.30 | >80 % inhibition | >80 % inhibition | CS(=O)(=O)N[C@H]1CC[C@H](CNc2ncnc(N3CCOC[C@@H]3c3ccc(OC(F)(F)F)cc3)c2F)CC1 [Example 267, N-[4-[[[5-fluoro-6-[(3S)-3-[4-(trifluoromethoxy)phenyl]morpholin-4-yl]pyrimidin-4-yl]amino]methyl]cyclohexyl] methanesulfonamide]
4 | > 6.30 | >20 % inhibition | >80 % inhibition | O=S(=O)(NC1CC1)c1ccc(CNc2ncnc(N3CCOCC3c3ccccc3)c2F)cc1 (stereo not drawn) [Example 273, N-cyclopropyl-4-[[[5-fluoro-6-(3-phenylmorpholin-4-yl)pyrimidin-4-yl]amino]methyl] benzenesulfonamide]
5 | > 5.70 | >20 % inhibition | >50 % inhibition | CS(=O)(=O)N1CCC(CNc2ncnc(N3CCOCC3c3ccccc3)c2F)CC1 (stereo not drawn) [Example 274, 5-fluoro-N-[(1-methylsulfonyl-4-piperidyl)methyl]-6-(3-phenylmorpholin-4-yl)pyrimidin-4-amine]
6 | > 5.70 | >0 % inhibition | >20 % inhibition | O=C(O)Cc1ccc(CNc2ncnc(N3CCOCC3c3ccccc3)c2F)cc1 (stereo not drawn) [Example 276, 2-[4-[[[5-fluoro-6-(3-phenylmorpholin-4-yl)pyrimidin-4-yl]amino]methyl]phenyl]acetic acid]
7 | > 6.30 | >0 % inhibition | >20 % inhibition | NC(=O)Cc1ccc(CNc2ncnc(N3CC(=O)CC3c3ccc(C(F)(F)F)cc3)c2F)cc1 (stereo not drawn) [Example 280, 2-[4-[[[5-fluoro-6-[4-oxo-2-[4-(trifluoromethyl)phenyl]pyrrolidin-1-yl]pyrimidin-4-yl]amino]methyl]phenyl]acetamide]
8 | > 5.00 | >0 % inhibition | >0 % inhibition | O=C(O)Cc1ccc(CNc2ncnc(N3CCOCC3c3ccccc3)c2F)s1 (stereo not drawn) [Example 282, 2-[5-[[[5-fluoro-6-(3-phenylmorpholin-4-yl)pyrimidin-4-yl]amino]methyl]-2-thienyl]acetic acid]
9 | > 6.00 | >0 % inhibition | >20 % inhibition | NC(=O)Cc1ccc(CNc2ncnc(N3CCOCC3c3ccccc3)c2F)s1 (stereo not drawn) [Example 283, 2-[5-[[[5-fluoro-6-(3-phenylmorpholin-4-yl)pyrimidin-4-yl]amino]methyl]-2-thienyl]acetamide]
10 | > 6.30 | >20 % inhibition | >50 % inhibition | NC(=O)Cc1ccc(Cn2ccc3c(N4CCOCC4c4ccccc4)ncnc32)cc1 (stereo not drawn) [Example 284, 2-[4-[[4-(3-phenylmorpholin-4-yl)pyrrolo[2,3-d]pyrimidin-7-yl]methyl]phenyl]acetamide]
11 | > 6.30 | >0 % inhibition | >20 % inhibition | O=S(=O)(CC(F)(F)F)N[C@H]1CC[C@H](CNc2ncnc(N3CCOC[C@@H]3c3ccc(OC(F)(F)F)cc3)c2F)CC1 [Example 285, 2,2,2-trifluoro-N-[4-[[[5-fluoro-6-[(3S)-3-[4-(trifluoromethoxy)phenyl]morpholin-4-yl]pyrimidin-4-yl]amino]methyl]cyclohexyl]ethane sulfonamide]
12 | > 5.70 | >20 % inhibition | >20 % inhibition | CNC(=O)C1(CNc2ncnc(N3CCOC[C@@H]3c3ccc(C(F)(F)F)cc3)c2F)CCOCC1 [Example 286, 4-[[[5-fluoro-6-[(3S)-3-[4-(trifluoromethyl)phenyl]morpholin-4-yl]pyrimidin-4-yl]amino]methyl]-N-methyl-tetrahydropyran-4-carboxamide]
13 | > 6.30 | >50 % inhibition | >80 % inhibition | N#CC[C@H]1CC[C@H](CNc2ncnc(N3CCOC[C@@H]3c3ccc(C(F)(F)F)cc3)c2F)CC1 [Example 287, 2-[4-[[[5-fluoro-6-[(3S)-3-[4-(trifluoromethyl)phenyl]morpholin-4-yl]pyrimidin-4-yl]amino]methyl]cyclohexyl] acetonitrile]
14 | > 6.30 | >80 % inhibition | >80 % inhibition | Fc1c(NC[C@H]2CC[C@H](Cc3nnn[nH]3)CC2)ncnc1N1CCOC[C@@H]1c1ccc(C(F)(F)F)cc1 [Example 288, 5-fluoro-N-[[4-(1H-tetrazol-5-ylmethyl)cyclohexyl]methyl]-6-[(3S)-3-[4-(trifluoromethyl)phenyl]morpholin-4-yl]pyrimidin-4-amine]
15 | > 6.30 | >50 % inhibition | >80 % inhibition | CS(=O)(=O)N1CCC(Cn2ccc3c(N4CCOC[C@@H]4c4ccc(OC(F)(F)F)cc4)ncnc32)CC1 [Example 290, (3S)-4-[7-[(1-methylsulfonyl-4-piperidyl)methyl]pyrrolo[2,3-d]pyrimidin-4-yl]-3-[4-(trifluoromethoxy)phenyl] morpholine]
16 | > 6.00 | >0 % inhibition | >50 % inhibition | O=S(=O)(Nc1ccc(CNc2ncnc(N3CCOC[C@@H]3c3ccc(C(F)(F)F)cc3)c2F)cc1)C(F)(F)F [Example 291, 1,1,1-trifluoro-N-[4-[[[5-fluoro-6-[(3S)-3-[4-(trifluoromethyl)phenyl]morpholin-4-yl]pyrimidin-4-yl]amino]methyl]phenyl] methanesulfonamide]
17 | > 6.30 | >0 % inhibition | >20 % inhibition | N#CNC(=O)Cc1ccc(CNc2ncnc(N3CCOCC3c3ccc(C(F)(F)F)cc3)c2F)cc1 (stereo not drawn) [Example 292, N-cyano-2-[4-[[[5-fluoro-6-[3-[4-(trifluoromethyl)phenyl]morpholin-4-yl]pyrimidin-4-yl]amino]methyl]phenyl]acetamide]
